Reference: US11076594B2, “Pyrazolone compound or salt thereof, preparation method therefor, herbicide composition and use thereof” (QINGDAO KINGAGROOT CHEMICAL COMPOUNDS CO., LTD., priority 2015, dated 2021)

Assays:
Format in all cases: in vivo
rice = assay: post-emergence stage experiment, crop (Table 1); settings: post-emergence spray at 4-5 leaf stage, 250 g/ha active ingredient with 450 kg/ha water, rated after 3 weeks in greenhouse
Method in brief: (§1)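 Fresh-weight-based growth control rate was assessed 3 weeks after spraying. Test compound, dissolved in acetone, with tween 80 added and diluted in water, was sprayed onto greenhouse-grown, pot-cultured weeds and crop plants at 4-5 leaves, 2-3 weeks post-sowing.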

corn gromwell = assay: wheat field resistant broadleaf weed control, greenhouse spray at 4 leaf stage; set-up: key: Level 10: completely dead; Level 9: above 95% growth control rate; Level 8: above 90% growth control rate; Level 7: above 80% growth control rate; Level 6: above 70% growth control rate; Level 5: above 60% growth control rate; Level 4: above 50% growth control rate; Level 3: above 20% growth control rate; Level 2: 5%-20% growth control rate; Level 1: below 5% growth control rate; settings: 250 g/ha of the active substance; 4 weeks after treatment; ALS inhibitor resistant
Method: (§2) The activity level standard of harmful plant destruction (i.e. growth control rate) is as follows:
(§3) The above described growth control rate is fresh weight control rate.
(§4) The seeds of alopecurus japonicas, flixweed, shepherd's purse, corn gromwell, chickweed, beckmannia syzigachne, and annual ryegrass and wheat seeds were put into a plastic pot loaded with soil, and then covered with 0.5-2 cm soil, the seeds were allowed to grow in good greenhouse environment. The test plants were treated at 4 leaf stage 2-3 weeks after sowing. The test compounds of the present invention were dissolved in acetone respectively, then added with methyl oleate emulsion and diluted by certain amount of water to certain concentration. The solution was sprayed to the plant with a sprayer. Then the plants were cultured for 4 weeks in greenhouse.

chickweed = assay: as above; set-up: key: Level 10: completely dead; Level 9: above 95% growth control rate; Level 8: above 90% growth control rate; Level 7: above 80% growth control rate; Level 6: above 70% growth control rate; Level 5: above 60% growth control rate; Level 4: above 50% growth control rate; Level 3: above 20% growth control rate; Level 2: 5%-20% growth control rate; Level 1: below 5% growth control rate; settings: 250 g/ha of the active substance; 4 weeks after treatment; ALS inhibitor resistant
Method: as §2, §3, §4

shepherd's purse = assay: as above; set-up: key: Level 10: completely dead; Level 9: above 95% growth control rate; Level 8: above 90% growth control rate; Level 7: above 80% growth control rate; Level 6: above 70% growth control rate; Level 5: above 60% growth control rate; Level 4: above 50% growth control rate; Level 3: above 20% growth control rate; Level 2: 5%-20% growth control rate; Level 1: below 5% growth control rate; settings: 250 g/ha of the active substance; 4 weeks after treatment; ALS inhibitor resistant
Method: as §2, §3, §4

flixweed = assay: as above; set-up: key: Level 10: completely dead; Level 9: above 95% growth control rate; Level 8: above 90% growth control rate; Level 7: above 80% growth control rate; Level 6: above 70% growth control rate; Level 5: above 60% growth control rate; Level 4: above 50% growth control rate; Level 3: above 20% growth control rate; Level 2: 5%-20% growth control rate; Level 1: below 5% growth control rate; settings: 250 g/ha of the active substance; 4 weeks after treatment; ALS inhibitor resistant
Method: as §2, §3, §4

crab grass = assay: weed control effect in post-emergence stage (Table 1); set-up: key: Level 10: completely dead; Level 9: above 95% growth control rate; Level 8: above 90% growth control rate; Level 7: above 80% growth control rate; Level 6: above 70% growth control rate; Level 5: above 60% growth control rate; Level 4: above 50% growth control rate; Level 3: above 20% growth control rate; Level 2: 5%-20% growth control rate; Level 1: below 5% growth control rate; settings: post-emergence spray at 4-5 leaf stage, 250 g/ha active ingredient with 450 kg/ha water, rated after 3 weeks in greenhouse
Method in brief: as §1

echinochloa = assay: as above; set-up: key: Level 10: completely dead; Level 9: above 95% growth control rate; Level 8: above 90% growth control rate; Level 7: above 80% growth control rate; Level 6: above 70% growth control rate; Level 5: above 60% growth control rate; Level 4: above 50% growth control rate; Level 3: above 20% growth control rate; Level 2: 5%-20% growth control rate; Level 1: below 5% growth control rate; settings: post-emergence spray at 4-5 leaf stage, 250 g/ha active ingredient with 450 kg/ha water, rated after 3 weeks in greenhouse
Method in brief: as §1

Indian mallow = assay: as above; set-up: key: Level 10: completely dead; Level 9: above 95% growth control rate; Level 8: above 90% growth control rate; Level 7: above 80% growth control rate; Level 6: above 70% growth control rate; Level 5: above 60% growth control rate; Level 4: above 50% growth control rate; Level 3: above 20% growth control rate; Level 2: 5%-20% growth control rate; Level 1: below 5% growth control rate; settings: post-emergence spray at 4-5 leaf stage, 250 g/ha active ingredient with 450 kg/ha water, rated after 3 weeks in greenhouse
Method in brief: as §1

rorippa indica = assay: as above; set-up: key: Level 10: completely dead; Level 9: above 95% growth control rate; Level 8: above 90% growth control rate; Level 7: above 80% growth control rate; Level 6: above 70% growth control rate; Level 5: above 60% growth control rate; Level 4: above 50% growth control rate; Level 3: above 20% growth control rate; Level 2: 5%-20% growth control rate; Level 1: below 5% growth control rate; settings: post-emergence spray at 4-5 leaf stage, 250 g/ha active ingredient with 450 kg/ha water, rated after 3 weeks in greenhouse
Method in brief: as §1

foxtail = assay: as above; set-up: key: Level 10: completely dead; Level 9: above 95% growth control rate; Level 8: above 90% growth control rate; Level 7: above 80% growth control rate; Level 6: above 70% growth control rate; Level 5: above 60% growth control rate; Level 4: above 50% growth control rate; Level 3: above 20% growth control rate; Level 2: 5%-20% growth control rate; Level 1: below 5% growth control rate; settings: post-emergence spray at 4-5 leaf stage, 250 g/ha active ingredient with 450 kg/ha water, rated after 3 weeks in greenhouse
Method in brief: as §1

bidens bipinnata = assay: as above; set-up: key: Level 10: completely dead; Level 9: above 95% growth control rate; Level 8: above 90% growth control rate; Level 7: above 80% growth control rate; Level 6: above 70% growth control rate; Level 5: above 60% growth control rate; Level 4: above 50% growth control rate; Level 3: above 20% growth control rate; Level 2: 5%-20% growth control rate; Level 1: below 5% growth control rate; settings: post-emergence spray at 4-5 leaf stage, 250 g/ha active ingredient with 450 kg/ha water, rated after 3 weeks in greenhouse
Method in brief: as §1

wheat [1] = assay: post-emergence stage experiment, crop (Table 1); settings: post-emergence spray at 4-5 leaf stage, 250 g/ha active ingredient with 450 kg/ha water, rated after 3 weeks in greenhouse
Method in brief: as §1

corn = assay: post-emergence stage experiment, crop (Table 1); settings: post-emergence spray at 4-5 leaf stage, 250 g/ha active ingredient with 450 kg/ha water, rated after 3 weeks in greenhouse
Method in brief: as §1

wheat [2] = assay: wheat field test, crop selectivity, greenhouse spray at 4 leaf stage; settings: 250 g/ha of the active substance; 4 weeks after treatment
Method: as §2, §3, §4

| effect on crop, Wheat (level) (wheat [1]) | SMILES | effect on crop, Rice (level) (rice) | corn gromwell weed controlling effect (activity level) (corn gromwell) | chickweed weed controlling effect (activity level) (chickweed) | shepherd's purse weed controlling effect (activity level) (shepherd's purse) | flixweed weed controlling effect (activity level) (flixweed) | weed control effect, Crab grass (level) (crab grass) | weed control effect, Echinochloa (level) (echinochloa) | weed control effect, Indian mallow (level) (Indian mallow) | weed control effect, Rorippa indica (level) (rorippa indica) | weed control effect, Green foxtail (level) (foxtail) | weed control effect, Bidens bipinnata (level) (bidens bipinnata) | effect on crop, Corn (level) (corn) | Wheat (activity level, crop damage) (wheat [2]) |
| --- | --- | --- | --- | --- | --- | --- | --- | --- | --- | --- | --- | --- | --- | --- |
| 0 | Cc1cnn(-c2c(C(F)(F)F)ccc(C(=O)c3c(C4CC4)nn(C)c3OC(=O)c3cn(C)nc3C)c2Cl)c1 [Compound 090] | 2 (Level 2: 5%-20% growth control rate) | 10 | 10 | 10 | 10 | 1 (Level 1: below 5% growth control rate) | 6 (Level 6: above 70% growth control rate) | 10 | 10 | 2 (Level 2: 5%-20% growth control rate) |  | 1 (Level 1: below 5% growth control rate) | 0 |
| 0 | CC(=O)N(CC(F)F)c1c(C(F)(F)F)ccc(C(=O)c2c(C)nn(C)c2O)c1Cl [Compound 005] | 7 (Level 7: above 80% growth control rate) | 10 | 10 | 10 | 10 | 2 (Level 2: 5%-20% growth control rate) | 10 | 10 | 10 | 5 (Level 5: above 60% growth control rate) | 10 |  | 0 |
| 0 | Cc1nn(C)cc1C(=O)Oc1c(C(=O)c2ccc(C(F)(F)F)c(-n3cccn3)c2Cl)c(C)nn1C [Compound 072] | 4 (Level 4: above 50% growth control rate) | 10 | 10 | 10 | 10 | 4 (Level 4: above 50% growth control rate) | 6 (Level 6: above 70% growth control rate) | 10 | 10 | 10 |  | 3 (Level 3: above 20% growth control rate) | 0 |

More lines, now with the values behind:

| SMILES | effect on crop, Wheat (level) (wheat [1]) | effect on crop, Rice (level) (rice) | corn gromwell weed controlling effect (activity level) (corn gromwell) | chickweed weed controlling effect (activity level) (chickweed) | shepherd's purse weed controlling effect (activity level) (shepherd's purse) | flixweed weed controlling effect (activity level) (flixweed) | weed control effect, Crab grass (level) (crab grass) | weed control effect, Echinochloa (level) (echinochloa) | weed control effect, Indian mallow (level) (Indian mallow) | weed control effect, Rorippa indica (level) (rorippa indica) | weed control effect, Green foxtail (level) (foxtail) | weed control effect, Bidens bipinnata (level) (bidens bipinnata) | effect on crop, Corn (level) (corn) | Wheat (activity level, crop damage) (wheat [2]) |
| --- | --- | --- | --- | --- | --- | --- | --- | --- | --- | --- | --- | --- | --- | --- |
| CCn1ncc(C(=O)c2ccc(C(F)(F)F)c(N3CCCC3=O)c2Cl)c1O [Compound 096] | 1 (Level 1: below 5% growth control rate) | 9 (Level 9: above 95% growth control rate) | 10 | 10 | 10 | 10 | 5 (Level 5: above 60% growth control rate) | 10 | 10 | 10 | 10 | 10 | 0 | 1 (Level 1: below 5% growth control rate) |
| O=C(c1ccc(C(F)(F)F)c(N2CCCCC2=O)c1Cl)c1c(C2CC2)nn(C2CC2)c1O [Compound 148] |  |  | 10 | 10 | 10 | 10 |  |  |  |  |  |  |  | 1 (Level 1: below 5% growth control rate) |
| CC(C)n1nc(C2CC2)c(C(=O)c2ccc(C(F)(F)F)c(N3CCCCC3=O)c2Cl)c1O [Compound 147] |  |  | 10 | 9 (Level 9: above 95% growth control rate) | 10 | 10 |  |  |  |  |  |  |  | 0 |
| Cc1cnn(-c2c(C(F)(F)F)ccc(C(=O)c3c(C)nn(C)c3OC(=O)c3cn(C)nc3C)c2Cl)c1 [Compound 088] | 0 |  | 10 | 10 | 10 | 10 | 9 (Level 9: above 95% growth control rate) | 10 | 10 | 10 | 10 | 4 (Level 4: above 50% growth control rate) | 0 | 0 |
| Cc1nn(C)cc1C(=O)Oc1c(C(=O)c2ccc(C(F)(F)F)c(-n3cccn3)c2Cl)cnn1C [Compound 067] | 0 | 3 (Level 3: above 20% growth control rate) | 10 | 10 | 10 | 10 | 7 (Level 7: above 80% growth control rate) | 7 (Level 7: above 80% growth control rate) | 10 | 10 | 10 |  | 3 (Level 3: above 20% growth control rate) | 0 |
